Measurements as given in paper PMC7265341, “Quantifying CDK inhibitor selectivity in live cells” (Nature Communications, 2020).
Like-named read-outs stand apart in the source and are kept apart here.

What was measured:
CDK19/Cyclin C = CDK19/Cyclin C (Homo sapiens, UniProt Q9BWU1); experiment: NanoBRET live-cell target engagement, NanoLuc-CDK19/Cyclin C in HEK-293
CDK12/Cyclin K = CDK12/Cyclin K (Homo sapiens, UniProt Q9NYV4); experiment: NanoBRET live-cell target engagement, CDK12-NanoLuc/Cyclin K in HEK-293; format: binding; conditions: CDK12/K, 10µM
CDK4/Cyclin D1 = CDK4/Cyclin D1 (Homo sapiens, UniProt P11802); experiment: NanoBRET live-cell target engagement, NanoLuc-CDK4/Cyclin D1 in HEK-293; format: binding; conditions: CDK4/D1, 10µM
Sequence of CDK4/Cyclin D1 (P11802 whole entry): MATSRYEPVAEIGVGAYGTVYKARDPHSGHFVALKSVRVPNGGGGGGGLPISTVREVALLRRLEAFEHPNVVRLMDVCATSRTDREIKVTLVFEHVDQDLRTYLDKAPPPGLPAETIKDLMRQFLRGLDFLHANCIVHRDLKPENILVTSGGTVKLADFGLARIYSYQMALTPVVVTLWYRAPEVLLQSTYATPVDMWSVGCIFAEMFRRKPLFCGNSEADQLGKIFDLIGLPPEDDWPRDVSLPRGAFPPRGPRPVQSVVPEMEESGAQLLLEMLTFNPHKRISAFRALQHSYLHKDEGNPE
Sequence of CDK4/Cyclin D1 (P24385 whole entry partner): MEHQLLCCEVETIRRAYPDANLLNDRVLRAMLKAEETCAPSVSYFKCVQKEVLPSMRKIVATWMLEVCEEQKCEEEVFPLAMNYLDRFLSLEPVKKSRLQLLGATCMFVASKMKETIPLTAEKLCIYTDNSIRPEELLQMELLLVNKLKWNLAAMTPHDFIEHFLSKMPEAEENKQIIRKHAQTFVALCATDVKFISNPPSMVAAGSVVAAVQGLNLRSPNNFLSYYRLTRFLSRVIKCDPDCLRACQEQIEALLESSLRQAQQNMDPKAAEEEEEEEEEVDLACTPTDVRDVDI

CDK5/CDK5R1 = CDK5/CDK5R1 (Homo sapiens, UniProt Q00535); experiment: NanoBRET live-cell target engagement, CDK5-NanoLuc/CDK5R1 in HEK-293; format: binding; conditions: CDK5/CDK5R1, 10µM
Sequence of CDK5/CDK5R1 (Q00535 whole entry): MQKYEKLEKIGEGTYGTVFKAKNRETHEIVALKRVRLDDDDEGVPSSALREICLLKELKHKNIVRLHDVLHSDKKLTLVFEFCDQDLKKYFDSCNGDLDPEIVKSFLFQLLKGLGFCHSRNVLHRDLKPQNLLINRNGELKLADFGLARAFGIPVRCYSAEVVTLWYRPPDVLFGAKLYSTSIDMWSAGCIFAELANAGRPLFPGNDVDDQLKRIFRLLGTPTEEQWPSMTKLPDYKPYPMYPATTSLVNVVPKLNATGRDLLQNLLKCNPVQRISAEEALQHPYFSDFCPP
Sequence of CDK5/CDK5R1 (Q15078 whole entry partner): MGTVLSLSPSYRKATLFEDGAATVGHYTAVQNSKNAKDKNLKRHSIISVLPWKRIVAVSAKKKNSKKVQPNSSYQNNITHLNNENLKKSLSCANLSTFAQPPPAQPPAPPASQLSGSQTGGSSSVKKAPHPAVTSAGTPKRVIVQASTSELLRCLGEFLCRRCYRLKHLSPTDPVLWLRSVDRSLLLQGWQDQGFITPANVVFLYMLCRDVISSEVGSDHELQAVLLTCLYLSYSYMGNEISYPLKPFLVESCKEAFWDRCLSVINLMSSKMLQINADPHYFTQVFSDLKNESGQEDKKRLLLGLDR

CDK13/Cyclin K = CDK13/Cyclin K (Homo sapiens, UniProt Q14004); experiment: NanoBRET live-cell target engagement, CDK13-NanoLuc/Cyclin K in HEK-293; format: binding; conditions: CDK13/K, 10µM
Sequence of CDK13/Cyclin K (O75909 whole entry): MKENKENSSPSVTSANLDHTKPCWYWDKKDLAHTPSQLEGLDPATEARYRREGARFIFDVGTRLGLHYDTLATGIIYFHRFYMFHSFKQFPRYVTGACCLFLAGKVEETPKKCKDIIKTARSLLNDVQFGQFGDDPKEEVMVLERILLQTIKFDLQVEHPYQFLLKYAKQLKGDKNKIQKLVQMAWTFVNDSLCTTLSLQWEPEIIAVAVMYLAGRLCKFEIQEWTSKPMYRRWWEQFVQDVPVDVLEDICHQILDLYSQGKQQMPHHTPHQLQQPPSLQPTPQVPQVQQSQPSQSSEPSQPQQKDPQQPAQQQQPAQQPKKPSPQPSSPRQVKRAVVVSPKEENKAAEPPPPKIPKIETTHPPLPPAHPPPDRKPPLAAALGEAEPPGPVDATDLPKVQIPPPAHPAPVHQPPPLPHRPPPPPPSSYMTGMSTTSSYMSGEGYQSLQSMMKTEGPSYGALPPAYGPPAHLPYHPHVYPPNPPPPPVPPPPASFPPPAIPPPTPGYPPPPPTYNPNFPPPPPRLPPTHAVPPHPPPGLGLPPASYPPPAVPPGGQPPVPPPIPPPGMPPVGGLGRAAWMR
Sequence of CDK13/Cyclin K (Q14004 other isoform, or with tags, fused parts or gaps): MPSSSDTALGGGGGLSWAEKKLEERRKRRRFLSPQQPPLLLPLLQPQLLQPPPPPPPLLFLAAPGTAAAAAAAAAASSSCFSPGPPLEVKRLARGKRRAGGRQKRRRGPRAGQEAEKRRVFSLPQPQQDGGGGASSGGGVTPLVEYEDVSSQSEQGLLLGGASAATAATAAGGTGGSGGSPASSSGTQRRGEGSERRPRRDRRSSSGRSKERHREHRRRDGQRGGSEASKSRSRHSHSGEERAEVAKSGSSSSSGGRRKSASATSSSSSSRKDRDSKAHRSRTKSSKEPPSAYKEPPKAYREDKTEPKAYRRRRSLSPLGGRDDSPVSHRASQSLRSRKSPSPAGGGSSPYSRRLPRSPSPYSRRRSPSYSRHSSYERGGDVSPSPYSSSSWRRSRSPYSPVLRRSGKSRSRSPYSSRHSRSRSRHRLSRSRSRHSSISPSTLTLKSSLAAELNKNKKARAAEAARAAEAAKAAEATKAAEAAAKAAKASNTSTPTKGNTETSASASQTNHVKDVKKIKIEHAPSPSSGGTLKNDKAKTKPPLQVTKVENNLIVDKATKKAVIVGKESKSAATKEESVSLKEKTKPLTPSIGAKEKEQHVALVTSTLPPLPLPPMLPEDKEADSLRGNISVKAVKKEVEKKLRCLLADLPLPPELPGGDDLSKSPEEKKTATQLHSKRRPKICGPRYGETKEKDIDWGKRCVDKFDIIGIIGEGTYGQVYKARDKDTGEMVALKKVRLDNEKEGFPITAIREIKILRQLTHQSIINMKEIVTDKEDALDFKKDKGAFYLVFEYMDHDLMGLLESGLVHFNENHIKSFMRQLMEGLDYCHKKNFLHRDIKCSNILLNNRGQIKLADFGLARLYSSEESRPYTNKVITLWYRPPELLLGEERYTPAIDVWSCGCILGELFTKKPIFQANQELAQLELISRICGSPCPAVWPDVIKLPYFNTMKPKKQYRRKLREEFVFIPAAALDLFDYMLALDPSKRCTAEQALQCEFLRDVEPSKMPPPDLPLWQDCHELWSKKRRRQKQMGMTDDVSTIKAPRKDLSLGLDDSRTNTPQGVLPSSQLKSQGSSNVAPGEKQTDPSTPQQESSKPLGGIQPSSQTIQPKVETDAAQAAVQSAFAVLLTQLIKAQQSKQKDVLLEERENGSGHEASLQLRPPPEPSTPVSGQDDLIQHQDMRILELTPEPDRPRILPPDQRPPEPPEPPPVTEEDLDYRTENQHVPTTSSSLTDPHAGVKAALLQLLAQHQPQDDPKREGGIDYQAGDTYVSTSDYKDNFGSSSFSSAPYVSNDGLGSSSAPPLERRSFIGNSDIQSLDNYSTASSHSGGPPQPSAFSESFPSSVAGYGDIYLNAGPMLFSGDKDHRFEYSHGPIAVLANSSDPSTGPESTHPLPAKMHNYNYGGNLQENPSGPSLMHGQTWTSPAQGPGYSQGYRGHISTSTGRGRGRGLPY

CDK11B/Cyclin L2 = CDK11B/Cyclin L2 (Homo sapiens, UniProt P21127); experiment: NanoBRET live-cell target engagement, CDK11B-NanoLuc/Cyclin L2 in HEK-293; format: binding; conditions: CDK11b/L2, 10µM
CDK20/Cyclin H = CDK20/Cyclin H (Homo sapiens, UniProt Q8IZL9); experiment: NanoBRET live-cell target engagement, NanoLuc-CDK20/Cyclin H in HEK-293; format: binding; conditions: CDK20/H, 10µM
CDK6/Cyclin D1 = CDK6/Cyclin D1 (Homo sapiens, UniProt Q00534); experiment: NanoBRET live-cell target engagement, NanoLuc-CDK6/Cyclin D1 in HEK-293; format: binding; conditions: CDK6/D1, 10µM
Sequence of CDK6/Cyclin D1 (Q00534 whole entry): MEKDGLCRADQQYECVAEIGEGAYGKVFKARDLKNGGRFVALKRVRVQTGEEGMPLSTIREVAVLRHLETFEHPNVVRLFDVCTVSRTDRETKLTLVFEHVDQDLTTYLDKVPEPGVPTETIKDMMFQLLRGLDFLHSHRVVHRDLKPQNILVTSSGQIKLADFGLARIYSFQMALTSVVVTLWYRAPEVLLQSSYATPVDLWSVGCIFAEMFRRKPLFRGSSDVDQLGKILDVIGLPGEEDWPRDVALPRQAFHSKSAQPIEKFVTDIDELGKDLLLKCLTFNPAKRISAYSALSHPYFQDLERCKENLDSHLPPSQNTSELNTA
Sequence of CDK6/Cyclin D1 (P24385 whole entry partner): as the sequence (P24385 whole entry partner) above

CDK2/Cyclin E1 = CDK2/Cyclin E1 (Homo sapiens, UniProt P24941); experiment: NanoBRET live-cell target engagement, CDK2-NanoLuc/Cyclin E1 in HEK-293; format: binding; conditions: CDK2/E1, 10µM
CDK11A/Cyclin L2 = biological target: T1, CDK11A/Cyclin L2 (Homo sapiens, UniProt Q9UQ88); experiment: NanoBRET live-cell target engagement, CDK11A-NanoLuc/Cyclin L2 in HEK-293; format: binding; conditions: CDK11a/L2, 10µM
T1 sequence (Q9UQ88 1-783): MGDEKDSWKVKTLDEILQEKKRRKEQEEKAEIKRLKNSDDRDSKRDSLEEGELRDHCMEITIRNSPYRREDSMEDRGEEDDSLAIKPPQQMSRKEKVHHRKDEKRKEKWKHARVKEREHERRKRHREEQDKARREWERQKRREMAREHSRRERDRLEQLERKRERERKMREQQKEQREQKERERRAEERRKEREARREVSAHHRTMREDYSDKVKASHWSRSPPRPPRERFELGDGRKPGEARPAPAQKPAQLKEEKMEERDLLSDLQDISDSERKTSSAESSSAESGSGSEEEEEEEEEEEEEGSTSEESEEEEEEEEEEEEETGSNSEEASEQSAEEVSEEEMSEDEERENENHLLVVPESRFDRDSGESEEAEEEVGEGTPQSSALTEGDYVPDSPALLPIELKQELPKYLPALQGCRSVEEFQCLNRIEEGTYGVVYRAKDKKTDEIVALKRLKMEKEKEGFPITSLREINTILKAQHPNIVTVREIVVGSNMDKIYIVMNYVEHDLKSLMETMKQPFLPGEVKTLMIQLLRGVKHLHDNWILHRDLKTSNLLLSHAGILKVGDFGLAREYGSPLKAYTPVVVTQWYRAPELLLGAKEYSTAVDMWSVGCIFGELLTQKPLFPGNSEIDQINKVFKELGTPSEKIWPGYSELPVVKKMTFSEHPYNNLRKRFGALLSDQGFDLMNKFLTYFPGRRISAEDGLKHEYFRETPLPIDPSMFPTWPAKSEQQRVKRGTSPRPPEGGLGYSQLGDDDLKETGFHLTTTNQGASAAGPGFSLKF

CDK1/Cyclin E1 = CDK1/Cyclin E1 (Homo sapiens, UniProt P06493); experiment: NanoBRET live-cell target engagement, CDK1-NanoLuc/Cyclin E1 in HEK-293; format: binding; conditions: CDK1/E1, 10µM
CDK9/Cyclin K = CDK9/Cyclin K (Homo sapiens, UniProt P50750); experiment: NanoBRET live-cell target engagement, NanoLuc-CDK9/Cyclin K in HEK-293; format: binding; conditions: CDK9/K, 10µM
Sequence of CDK9/Cyclin K (P50750 whole entry): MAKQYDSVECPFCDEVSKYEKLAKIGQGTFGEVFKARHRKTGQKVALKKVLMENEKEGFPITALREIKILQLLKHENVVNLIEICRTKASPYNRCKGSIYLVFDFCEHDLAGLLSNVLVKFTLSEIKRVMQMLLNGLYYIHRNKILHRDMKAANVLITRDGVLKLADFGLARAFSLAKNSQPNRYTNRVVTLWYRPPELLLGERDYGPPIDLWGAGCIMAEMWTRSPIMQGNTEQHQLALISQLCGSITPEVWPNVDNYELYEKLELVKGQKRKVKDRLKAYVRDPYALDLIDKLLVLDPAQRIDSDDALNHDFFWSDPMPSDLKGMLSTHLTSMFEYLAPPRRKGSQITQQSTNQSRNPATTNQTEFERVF
Sequence of CDK9/Cyclin K (O75909 whole entry partner): as the sequence (O75909 whole entry) above

CDK7 = CDK7 (Homo sapiens, UniProt P50613); experiment: NanoBRET live-cell target engagement, NanoLuc-CDK7 in HEK-293; format: binding; conditions: CDK7
CDK8/Cyclin C = CDK8/Cyclin C (Homo sapiens, UniProt P49336); experiment: NanoBRET live-cell target engagement, NanoLuc-CDK8/Cyclin C in HEK-293; format: binding
CDK3/Cyclin E1 = CDK3/Cyclin E1 (Homo sapiens, UniProt Q00526); experiment: NanoBRET live-cell target engagement, CDK3-NanoLuc/Cyclin E1 in HEK-293; format: binding; conditions: CDK3/E1, 10µM
Sequence of CDK3/Cyclin E1 (Q00526 whole entry): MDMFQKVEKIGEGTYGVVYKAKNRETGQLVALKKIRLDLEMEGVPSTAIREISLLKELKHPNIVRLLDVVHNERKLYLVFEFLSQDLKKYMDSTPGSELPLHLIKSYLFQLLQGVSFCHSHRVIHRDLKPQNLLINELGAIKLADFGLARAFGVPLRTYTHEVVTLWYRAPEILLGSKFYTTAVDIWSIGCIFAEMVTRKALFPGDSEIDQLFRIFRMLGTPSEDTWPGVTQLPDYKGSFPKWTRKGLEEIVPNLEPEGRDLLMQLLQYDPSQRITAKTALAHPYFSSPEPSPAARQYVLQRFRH
Sequence of CDK3/Cyclin E1 (P24864 whole entry partner): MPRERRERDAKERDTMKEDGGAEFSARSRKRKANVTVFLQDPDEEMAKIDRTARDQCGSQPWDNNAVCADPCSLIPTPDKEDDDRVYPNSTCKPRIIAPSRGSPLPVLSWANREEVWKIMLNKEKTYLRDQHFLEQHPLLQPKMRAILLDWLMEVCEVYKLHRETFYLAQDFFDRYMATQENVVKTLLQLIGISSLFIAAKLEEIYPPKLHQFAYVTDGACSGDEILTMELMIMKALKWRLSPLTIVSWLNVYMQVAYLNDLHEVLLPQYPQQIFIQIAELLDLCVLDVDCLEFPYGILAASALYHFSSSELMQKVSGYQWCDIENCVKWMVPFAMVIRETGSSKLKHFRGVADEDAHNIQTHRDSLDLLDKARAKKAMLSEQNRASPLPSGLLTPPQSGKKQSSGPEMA

[1] = average of replicates, read-out: Inhibition at 10µM (%) Average
[2] = read-out: Inhibition at 10µM (%) Replicate 1
[3] = read-out: Inhibition at 10µM (%) Replicate 2

Question: With CCN1CCN(Cc2ccc(NC(=O)Nc3ccc(Oc4cc(NC)ncn4)cc3)cc2C(F)(F)F)CC1 [AST-487] as the compound, how does the IC50 (CDK19/Cyclin C; IC50 (nM) Average*, CDK19/Y, n=3 average ± SEM, n=2 average to 2 significant figures) read?
Answer: Its IC50 is 25 nM.

Question: What about the IC50 (CDK19/Cyclin C; IC50 (nM) Replicate 1, CDK19/C) of the same compound?
Answer: Its IC50 is 28 nM.

Question: And the IC50 (CDK19/Cyclin C; IC50 (nM) Replicate 2, CDK19/C)?
Answer: Its IC50 is 22 nM.

Question: And the IC50 (CDK19/Cyclin C; IC50, [Probe 1] 0.5 µM (plot: [Probe 3]), n=1)?
Answer: The IC50 was 9.4 nM.

Question: And the IC50 (CDK19/Cyclin C; IC50, [Probe 1] 1 µM (plot: [Probe 3]), n=1)?
Answer: Its IC50 is 10 nM.

Question: And the inhibition at 10 µM (CDK19/Cyclin C; read-out: Inhibition at 10µM (%) Average, CDK19/C, average of replicates)?
Answer: The inhibition at 10 µM was 98.4%.

Question: What about the inhibition at 10 µM (CDK19/Cyclin C; read-out: Inhibition at 10µM (%) Replicate 1, CDK19/C) of the same compound?
Answer: The inhibition at 10 µM was 94.2%.

Question: What about the inhibition at 10 µM (CDK19/Cyclin C; read-out: Inhibition at 10µM (%) Replicate 2, CDK19/C) of the same compound?
Answer: The inhibition at 10 µM was 103%.

Question: And the inhibition at 10 µM (CDK12/Cyclin K; [1])?
Answer: The inhibition at 10 µM was 53.4%.

Question: What about the inhibition at 10 µM (CDK12/Cyclin K; [2]) of the same compound?
Answer: Its inhibition at 10 µM is 34.4%.

Question: And the inhibition at 10 µM (CDK12/Cyclin K; [3])?
Answer: Its inhibition at 10 µM is 72.3%.

Question: And the inhibition at 10 µM (CDK4/Cyclin D1; [1])?
Answer: The inhibition at 10 µM was 75.5%.

Question: What about the inhibition at 10 µM (CDK4/Cyclin D1; [2]) of the same compound?
Answer: The inhibition at 10 µM was 55.7%.

Question: And the inhibition at 10 µM (CDK4/Cyclin D1; [3])?
Answer: Its inhibition at 10 µM is 95.3%.

Question: And the inhibition at 10 µM (CDK5/CDK5R1; [1])?
Answer: The inhibition at 10 µM was 38.1%.

Question: What about the inhibition at 10 µM (CDK5/CDK5R1; [2]) of the same compound?
Answer: Its inhibition at 10 µM is 12.7%.

Question: And the inhibition at 10 µM (CDK5/CDK5R1; [3])?
Answer: Its inhibition at 10 µM is 63.5%.

Question: What about the inhibition at 10 µM (CDK13/Cyclin K; [1]) of the same compound?
Answer: Its inhibition at 10 µM is 47.2%.

Question: What about the inhibition at 10 µM (CDK13/Cyclin K; [2]) of the same compound?
Answer: The inhibition at 10 µM was 28%.

Question: What about the inhibition at 10 µM (CDK13/Cyclin K; [3]) of the same compound?
Answer: Its inhibition at 10 µM is 66.3%.

Question: What about the inhibition at 10 µM (CDK11B/Cyclin L2; [1]) of the same compound?
Answer: Its inhibition at 10 µM is 10.3%.

Question: What about the inhibition at 10 µM (CDK11B/Cyclin L2; [2]) of the same compound?
Answer: The inhibition at 10 µM was 10.9%.

Question: And the inhibition at 10 µM (CDK11B/Cyclin L2; [3])?
Answer: The inhibition at 10 µM was 9.7%.

Question: And the inhibition at 10 µM (CDK20/Cyclin H; [2])?
Answer: The inhibition at 10 µM was 38.4%.

Question: And the inhibition at 10 µM (CDK20/Cyclin H; [3])?
Answer: The inhibition at 10 µM was 80.6%.

Question: And the inhibition at 10 µM (CDK6/Cyclin D1; [1])?
Answer: The inhibition at 10 µM was 50.9%.

Question: What about the inhibition at 10 µM (CDK6/Cyclin D1; [2]) of the same compound?
Answer: The inhibition at 10 µM was 15.7%.

Question: What about the inhibition at 10 µM (CDK6/Cyclin D1; [3]) of the same compound?
Answer: The inhibition at 10 µM was 86.2%.

Question: And the inhibition at 10 µM (CDK2/Cyclin E1; [1])?
Answer: Its inhibition at 10 µM is 2.9%.

Question: What about the inhibition at 10 µM (CDK2/Cyclin E1; [2]) of the same compound?
Answer: Its inhibition at 10 µM is -18.7%.

Question: And the inhibition at 10 µM (CDK2/Cyclin E1; [3])?
Answer: Its inhibition at 10 µM is 24.5%.

Question: And the inhibition at 10 µM (CDK11A/Cyclin L2; [1])?
Answer: Its inhibition at 10 µM is 49%.

Question: And the inhibition at 10 µM (CDK11A/Cyclin L2; [2])?
Answer: The inhibition at 10 µM was 22.5%.

Question: What about the inhibition at 10 µM (CDK11A/Cyclin L2; [3]) of the same compound?
Answer: Its inhibition at 10 µM is 75.4%.

Question: What about the inhibition at 10 µM (CDK1/Cyclin E1; [1]) of the same compound?
Answer: Its inhibition at 10 µM is 75.2%.

Question: What about the inhibition at 10 µM (CDK1/Cyclin E1; [2]) of the same compound?
Answer: The inhibition at 10 µM was 59.8%.

Question: And the inhibition at 10 µM (CDK1/Cyclin E1; [3])?
Answer: Its inhibition at 10 µM is 90.6%.

Question: What about the inhibition at 10 µM (CDK9/Cyclin K; [1]) of the same compound?
Answer: The inhibition at 10 µM was 83.3%.

Question: What about the inhibition at 10 µM (CDK9/Cyclin K; [2]) of the same compound?
Answer: Its inhibition at 10 µM is 72.3%.

Question: And the inhibition at 10 µM (CDK9/Cyclin K; [3])?
Answer: Its inhibition at 10 µM is 94.4%.

Question: What about the inhibition at 10 µM (CDK7; [1]) of the same compound?
Answer: The inhibition at 10 µM was 70.4%.

Question: And the inhibition at 10 µM (CDK7; [2])?
Answer: Its inhibition at 10 µM is 74.2%.

Question: And the inhibition at 10 µM (CDK7; [3])?
Answer: Its inhibition at 10 µM is 66.6%.

Question: What about the IC50 (CDK7; n=3 average ± SEM, n=2 average to 2 significant figures, read-out: IC50 (nM) Average*) of the same compound?
Answer: Its IC50 is 760 nM.

Question: What about the IC50 (CDK7; read-out: IC50 (nM) Replicate 1) of the same compound?
Answer: The IC50 was 660 nM.

Question: What about the IC50 (CDK7; read-out: IC50 (nM) Replicate 2) of the same compound?
Answer: The IC50 was 860 nM.

Question: What about the inhibition at 10 µM (CDK8/Cyclin C; CDK8/C, average of replicates, read-out: Inhibition at 10µM (%) Average) of the same compound?
Answer: Its inhibition at 10 µM is 95.7%.

Question: And the inhibition at 10 µM (CDK8/Cyclin C; CDK8/C, read-out: Inhibition at 10µM (%) Replicate 1)?
Answer: Its inhibition at 10 µM is 95.7%.

Question: And the inhibition at 10 µM (CDK8/Cyclin C; CDK8/C, read-out: Inhibition at 10µM (%) Replicate 2)?
Answer: The inhibition at 10 µM was 95.7%.

Question: What about the IC50 (CDK8/Cyclin C; CDK8/C, n=3 average ± SEM, n=2 average to 2 significant figures, read-out: IC50 (nM) Average*) of the same compound?
Answer: The IC50 was 24 nM.

Question: What about the IC50 (CDK8/Cyclin C; CDK8/C, read-out: IC50 (nM) Replicate 1) of the same compound?
Answer: Its IC50 is 23 nM.

Question: And the IC50 (CDK8/Cyclin C; CDK8/C, read-out: IC50 (nM) Replicate 2)?
Answer: Its IC50 is 25 nM.

Question: What about the IC50 (CDK8/Cyclin C; [Probe 3] 0.5 µM, n=1, read-out: IC50) of the same compound?
Answer: The IC50 was 48 nM.

Question: And the inhibition at 10 µM (CDK3/Cyclin E1; [1])?
Answer: The inhibition at 10 µM was 71.7%.

Question: What about the inhibition at 10 µM (CDK3/Cyclin E1; [2]) of the same compound?
Answer: Its inhibition at 10 µM is 58%.

Question: What about the inhibition at 10 µM (CDK3/Cyclin E1; [3]) of the same compound?
Answer: The inhibition at 10 µM was 85.5%.
